# Assays:
# [1] = test system: TNFα mRNA; experiment: TNFα mRNA level in myocardial tissue of myocardial infarction model (real-time PCR); type: in vivo, mouse; conditions: ratio to GAPDH mRNA level; N=4; negative control 11±3; P<0.05; day not stated in text (FIG. 1C: 7 and 56 days)
# Experimental: (§1) Bone marrow cells were collected from the thigh bone/lower leg bone of three-week-old mice (C57BL6-CAG-GFP transgenic mice), and the bone marrow cell suspension was administered ([…]) to the tail vein of six-week-old mice (C57BL6) after irradiation (10GY) to produce bone marrow chimeric mice. Sixty days after bone marrow transplantation, left fourth interspace thoracotomy was performed under general anesthesia in the supine position, and the proximal left anterior descending coronary artery was ligated to produce an extensive myocardial infarction model (left anterior descending coronary artery/circumflex occlusion model). In making the HMGB1 protein low molecular, a fragment peptide (1-44) of the HMGB1 protein was developed in consideration of retaining the activity of recruiting bone marrow mesenchymal stem cells. […] Regarding the number of bone marrow-derived mesenchymal stem cells accumulated in the tissue, the number of cells positive for both GFP and PDGFRα present in all areas of randomly-selected 5 sections were determined and the mean value was calculated. […] Real-time PCR was performed with the Gene Amp(R) PCR System 9700 (Life Technologies Japan) using the above-mentioned cDNA as a template, and the levels of TNFα and IL-1β mRNA were determined as a ratio to the GAPDH mRNA level. […]
# [2] = test system: PDGFRα-positive bone marrow mesenchymal stem cells; experiment: Recruitment of PDGFRα-positive bone marrow-derived mesenchymal stem cells to myocardium in myocardial infarction model (GFP/PDGFRα immunofluorescence); type: in vivo, mouse; conditions: N=4, P<0.05
# Experimental: as §1
# [3] = test system: IL-1β mRNA; experiment: IL-1β mRNA level in myocardial tissue of myocardial infarction model (real-time PCR); type: in vivo, mouse; conditions: ratio to GAPDH mRNA level; N=4; negative control 6±1; P<0.05; day not stated in text (FIG. 1D: 7 and 56 days)
# Experimental: as §1
# [4] = test system: acute stage myocardial infarction mouse model; experiment: Cardiac function by echocardiography in myocardial infarction model; type: in vivo
# Experimental: Bone marrow cells were collected from the thigh bone/lower leg bone of three-week-old mice (C57BL6-CAG-GFP transgenic mice), and the bone marrow cell suspension was administered ([…]) to the tail vein of six-week-old mice (C57BL6) after irradiation (10GY) to produce bone marrow chimeric mice. Sixty days after bone marrow transplantation, left fourth interspace thoracotomy was performed under general anesthesia in the supine position, and the proximal left anterior descending coronary artery was ligated to produce an extensive myocardial infarction model (left anterior descending coronary artery/circumflex occlusion model). In making the HMGB1 protein low molecular, a fragment peptide (1-44) of the HMGB1 protein was developed in consideration of retaining the activity of recruiting bone marrow mesenchymal stem cells. At 6, 24, 48, 72, and 96 hours after infarction creation, the HMGB1 protein fragment peptide (1-44) (5 μg/300 μl), or 300 μl of PBS (negative control group) was administered five times to the tail vain. Mice were euthanized by administration of excess ketamine and xylazine, and their hearts were collected. After the tissues were embedded in OCT compound, cryosections of 5 μm thickness were prepared. […] Regarding the number of bone marrow-derived mesenchymal stem cells accumulated in the tissue, the number of cells positive for both GFP and PDGFRα present in all areas of randomly-selected 5 sections were determined and the mean value was calculated. […] Real-time PCR was performed with the Gene Amp(R) PCR System 9700 (Life Technologies Japan) using the above-mentioned cDNA as a template, and the levels of TNFα and IL-1β mRNA were determined as a ratio to the GAPDH mRNA level. Improvement in the cardiac function was evaluated by measuring the left ventricular end-diastolic diameter (LVDd: Dd), left ventricular end-systolic diameter (LVDs: Ds), and left ventricular ejection fraction (LVEF: EF) using the Vivid 7 Echocardiography System and 12-MHZ Transducer (General Electric).
substance,measurement,setting,value
"HMGB1 protein fragment peptide (1-44): peptide consisting of amino acids at positions 1 to 44 of an HMGB1 protein (SEQ ID NO: 3), produced by peptide synthesis (MGKGDPKKPRGKMSSYAFFVQTCREEHKKKHPDASVNFSEFSKK; Synthesized peptide from an HMGB1 protein)","TNFα mRNA level, non-infarction site",[1],4±2 GAPDH
same,"number of PDGFRα-positive bone marrow-derived mesenchymal cells, non-infarction site","[2]; day 7 post infarction creation, 5 μg/300 μl tail vein x5 (6, 24, 48, 72, 96 h), negative control 32±9",52±11 cells/mm^2
same,"recruitment of PDGFRα-positive bone marrow mesenchymal stem cells in all areas (infarction, border, non-infarction sites) vs. negative control",[2]; seven days after creating myocardial infarction,significantly recruited
same,"IL-1β mRNA level, non-infarction site",[3],2±1 GAPDH
same,left ventricular end-diastolic diameter (DD),"[4]; Day 56 after infarction, N=8, negative control (N=16) 6.3±0.2, P<0.05",5.8±0.2 mm
same,left ventricular ejection fraction (EF),"[4]; Day 56 after infarction, N=8, negative control (N=16) 20±4, P<0.05",26±4%
same,"aggravation of left ventricular systolic function, left ventricular enlargement, and left ventricular remodeling","[4]; myocardial infarction model, five-day administration",significantly suppressed

# From patent US9623078B2, “Method for treating cardiac infarction using HMGB1 fragment” (GENOMIX CO., LTD, priority 2012, dated 2017)
